What was measured:
Assay in all cases: IA-DTB cysteine engagement
Format in all cases: binding
YES1_C287 = molecular target: T1, YES1_C287 (Homo sapiens, UniProt P07947); details: 22Rv1 cells, relative to DMSO; for % engagement YES1_287: 5 μM probe, 1 h (FIG. 5B); for % engagement YES1_C287: 20 μM probe, 1 h
T1 construct: endogenous in cells; host or cells: 22Rv1
Method in brief: (§1)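 Competitive chemoproteomics: residual cysteine reactivity toward IA-DTB in lysates from probe-treated cells was quantified by TMT reporter ions relative to DMSO-treated controls. Replicates sharing cell line, probe, concentration and duration were averaged.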

CHUK_C406 = molecular target: T2, CHUK_C406 (Homo sapiens, UniProt O15111); details: 22Rv1 cells, 20 μM probe, 1 h, relative to DMSO
T2 construct: endogenous in cells; host or cells: 22Rv1
T2 sequence (O15111 1-745): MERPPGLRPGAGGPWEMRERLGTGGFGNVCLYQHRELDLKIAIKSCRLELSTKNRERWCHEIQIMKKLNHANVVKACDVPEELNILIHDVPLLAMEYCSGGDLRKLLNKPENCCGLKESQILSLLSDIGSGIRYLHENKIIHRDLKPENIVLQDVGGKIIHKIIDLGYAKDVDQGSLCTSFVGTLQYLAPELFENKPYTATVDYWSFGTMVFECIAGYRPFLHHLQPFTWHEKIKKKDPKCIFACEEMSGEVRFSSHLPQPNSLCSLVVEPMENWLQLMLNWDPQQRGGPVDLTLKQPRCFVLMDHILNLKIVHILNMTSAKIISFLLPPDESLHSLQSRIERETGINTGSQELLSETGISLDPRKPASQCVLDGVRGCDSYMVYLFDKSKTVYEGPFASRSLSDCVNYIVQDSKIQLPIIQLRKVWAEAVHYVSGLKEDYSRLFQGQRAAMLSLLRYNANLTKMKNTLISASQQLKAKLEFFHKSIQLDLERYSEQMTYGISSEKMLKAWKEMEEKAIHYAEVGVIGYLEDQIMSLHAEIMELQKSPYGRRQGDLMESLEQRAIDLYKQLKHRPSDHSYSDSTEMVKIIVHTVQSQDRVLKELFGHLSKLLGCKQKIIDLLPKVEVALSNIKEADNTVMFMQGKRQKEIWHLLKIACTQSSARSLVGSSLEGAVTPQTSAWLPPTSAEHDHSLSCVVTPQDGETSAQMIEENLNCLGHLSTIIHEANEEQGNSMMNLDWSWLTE
Method in brief: as §1

CRYBG1_C1574 = molecular target: T3, CRYBG1_C1574 (Homo sapiens, UniProt Q9Y4K1); details: 22Rv1 cells, 20 μM probe, 1 h, relative to DMSO
T3 construct: endogenous in cells; host or cells: 22Rv1
Method in brief: as §1

GRIN2C_C1105 = molecular target: T4, GRIN2C_C1105 (Homo sapiens, UniProt Q14957); details: 22Rv1 cells, 20 μM probe, 1 h, relative to DMSO
T4 construct: endogenous in cells; host or cells: 22Rv1
Method in brief: as §1

SCAMP4_C20 = molecular target: T5, SCAMP4_C20 (Homo sapiens, UniProt Q969E2); details: 22Rv1 cells, 20 μM probe, 1 h, relative to DMSO
T5 construct: endogenous in cells; host or cells: 22Rv1
T5 sequence (Q969E2 1-229): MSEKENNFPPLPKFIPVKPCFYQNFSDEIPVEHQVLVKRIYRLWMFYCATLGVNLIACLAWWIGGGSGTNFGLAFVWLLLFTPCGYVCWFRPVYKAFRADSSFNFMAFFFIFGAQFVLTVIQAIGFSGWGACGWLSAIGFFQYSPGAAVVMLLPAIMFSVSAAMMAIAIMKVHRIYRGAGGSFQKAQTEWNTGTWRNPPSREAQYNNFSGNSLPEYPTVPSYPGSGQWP
Method in brief: as §1

KRTCAP3_C197 = molecular target: T6, KRTCAP3_C197 (Homo sapiens, UniProt Q53RY4); details: 22Rv1 cells, 20 μM probe, 1 h, relative to DMSO
T6 construct: endogenous in cells; host or cells: 22Rv1
T6 sequence (Q53RY4 1-240): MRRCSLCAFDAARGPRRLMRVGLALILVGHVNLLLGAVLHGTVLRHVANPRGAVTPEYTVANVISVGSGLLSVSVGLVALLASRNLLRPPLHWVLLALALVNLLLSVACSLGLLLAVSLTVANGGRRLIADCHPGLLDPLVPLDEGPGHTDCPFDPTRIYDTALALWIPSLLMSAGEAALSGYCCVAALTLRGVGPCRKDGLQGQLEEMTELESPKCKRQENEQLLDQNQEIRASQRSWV
Method in brief: as §1

T4 sequence (Q14957 20-1233, other chains not shown): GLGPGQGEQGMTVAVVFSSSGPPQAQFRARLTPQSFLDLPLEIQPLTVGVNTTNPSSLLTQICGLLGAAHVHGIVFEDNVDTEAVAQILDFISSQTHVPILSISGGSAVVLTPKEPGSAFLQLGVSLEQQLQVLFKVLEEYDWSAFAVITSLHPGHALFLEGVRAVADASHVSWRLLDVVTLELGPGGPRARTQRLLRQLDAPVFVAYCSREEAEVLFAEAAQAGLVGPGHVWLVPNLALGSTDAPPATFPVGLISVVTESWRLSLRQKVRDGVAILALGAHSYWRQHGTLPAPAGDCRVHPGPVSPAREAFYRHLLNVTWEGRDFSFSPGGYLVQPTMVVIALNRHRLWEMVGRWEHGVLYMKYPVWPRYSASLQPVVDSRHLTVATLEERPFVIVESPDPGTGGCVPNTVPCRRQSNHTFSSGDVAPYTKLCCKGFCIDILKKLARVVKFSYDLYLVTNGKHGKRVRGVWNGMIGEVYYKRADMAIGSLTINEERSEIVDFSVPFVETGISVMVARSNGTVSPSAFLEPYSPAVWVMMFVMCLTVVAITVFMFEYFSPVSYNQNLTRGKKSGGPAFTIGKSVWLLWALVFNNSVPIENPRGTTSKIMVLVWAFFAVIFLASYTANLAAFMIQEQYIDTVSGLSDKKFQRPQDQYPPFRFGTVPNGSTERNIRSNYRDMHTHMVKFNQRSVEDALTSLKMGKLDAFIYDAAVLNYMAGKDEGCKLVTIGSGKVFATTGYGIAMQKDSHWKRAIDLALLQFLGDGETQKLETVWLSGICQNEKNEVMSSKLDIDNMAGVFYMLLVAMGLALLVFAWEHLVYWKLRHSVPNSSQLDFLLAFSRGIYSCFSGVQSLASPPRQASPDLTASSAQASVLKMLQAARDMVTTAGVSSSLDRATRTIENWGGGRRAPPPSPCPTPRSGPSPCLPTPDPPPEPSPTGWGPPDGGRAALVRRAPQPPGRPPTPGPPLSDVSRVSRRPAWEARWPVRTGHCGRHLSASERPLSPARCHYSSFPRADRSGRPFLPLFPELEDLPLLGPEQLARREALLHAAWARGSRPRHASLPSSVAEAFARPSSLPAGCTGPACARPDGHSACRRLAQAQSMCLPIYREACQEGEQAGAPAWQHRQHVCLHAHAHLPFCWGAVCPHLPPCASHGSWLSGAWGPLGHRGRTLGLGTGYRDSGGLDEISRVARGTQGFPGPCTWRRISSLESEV
T1 sequence (P07947 whole entry): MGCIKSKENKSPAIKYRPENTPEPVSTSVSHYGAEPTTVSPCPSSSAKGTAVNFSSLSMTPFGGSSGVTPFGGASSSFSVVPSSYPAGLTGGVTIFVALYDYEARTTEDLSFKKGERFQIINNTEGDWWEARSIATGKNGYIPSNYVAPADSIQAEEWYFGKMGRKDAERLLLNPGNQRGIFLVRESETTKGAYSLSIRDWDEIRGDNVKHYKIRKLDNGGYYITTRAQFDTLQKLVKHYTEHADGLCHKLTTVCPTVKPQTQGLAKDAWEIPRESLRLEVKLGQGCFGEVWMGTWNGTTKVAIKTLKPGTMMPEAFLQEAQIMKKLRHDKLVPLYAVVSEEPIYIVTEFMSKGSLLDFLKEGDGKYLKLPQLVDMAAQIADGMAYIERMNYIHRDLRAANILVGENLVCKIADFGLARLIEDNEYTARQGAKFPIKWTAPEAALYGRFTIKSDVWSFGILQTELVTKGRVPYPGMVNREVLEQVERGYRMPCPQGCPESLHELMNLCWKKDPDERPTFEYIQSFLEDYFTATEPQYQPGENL
T3 sequence (Q9Y4K1 whole entry): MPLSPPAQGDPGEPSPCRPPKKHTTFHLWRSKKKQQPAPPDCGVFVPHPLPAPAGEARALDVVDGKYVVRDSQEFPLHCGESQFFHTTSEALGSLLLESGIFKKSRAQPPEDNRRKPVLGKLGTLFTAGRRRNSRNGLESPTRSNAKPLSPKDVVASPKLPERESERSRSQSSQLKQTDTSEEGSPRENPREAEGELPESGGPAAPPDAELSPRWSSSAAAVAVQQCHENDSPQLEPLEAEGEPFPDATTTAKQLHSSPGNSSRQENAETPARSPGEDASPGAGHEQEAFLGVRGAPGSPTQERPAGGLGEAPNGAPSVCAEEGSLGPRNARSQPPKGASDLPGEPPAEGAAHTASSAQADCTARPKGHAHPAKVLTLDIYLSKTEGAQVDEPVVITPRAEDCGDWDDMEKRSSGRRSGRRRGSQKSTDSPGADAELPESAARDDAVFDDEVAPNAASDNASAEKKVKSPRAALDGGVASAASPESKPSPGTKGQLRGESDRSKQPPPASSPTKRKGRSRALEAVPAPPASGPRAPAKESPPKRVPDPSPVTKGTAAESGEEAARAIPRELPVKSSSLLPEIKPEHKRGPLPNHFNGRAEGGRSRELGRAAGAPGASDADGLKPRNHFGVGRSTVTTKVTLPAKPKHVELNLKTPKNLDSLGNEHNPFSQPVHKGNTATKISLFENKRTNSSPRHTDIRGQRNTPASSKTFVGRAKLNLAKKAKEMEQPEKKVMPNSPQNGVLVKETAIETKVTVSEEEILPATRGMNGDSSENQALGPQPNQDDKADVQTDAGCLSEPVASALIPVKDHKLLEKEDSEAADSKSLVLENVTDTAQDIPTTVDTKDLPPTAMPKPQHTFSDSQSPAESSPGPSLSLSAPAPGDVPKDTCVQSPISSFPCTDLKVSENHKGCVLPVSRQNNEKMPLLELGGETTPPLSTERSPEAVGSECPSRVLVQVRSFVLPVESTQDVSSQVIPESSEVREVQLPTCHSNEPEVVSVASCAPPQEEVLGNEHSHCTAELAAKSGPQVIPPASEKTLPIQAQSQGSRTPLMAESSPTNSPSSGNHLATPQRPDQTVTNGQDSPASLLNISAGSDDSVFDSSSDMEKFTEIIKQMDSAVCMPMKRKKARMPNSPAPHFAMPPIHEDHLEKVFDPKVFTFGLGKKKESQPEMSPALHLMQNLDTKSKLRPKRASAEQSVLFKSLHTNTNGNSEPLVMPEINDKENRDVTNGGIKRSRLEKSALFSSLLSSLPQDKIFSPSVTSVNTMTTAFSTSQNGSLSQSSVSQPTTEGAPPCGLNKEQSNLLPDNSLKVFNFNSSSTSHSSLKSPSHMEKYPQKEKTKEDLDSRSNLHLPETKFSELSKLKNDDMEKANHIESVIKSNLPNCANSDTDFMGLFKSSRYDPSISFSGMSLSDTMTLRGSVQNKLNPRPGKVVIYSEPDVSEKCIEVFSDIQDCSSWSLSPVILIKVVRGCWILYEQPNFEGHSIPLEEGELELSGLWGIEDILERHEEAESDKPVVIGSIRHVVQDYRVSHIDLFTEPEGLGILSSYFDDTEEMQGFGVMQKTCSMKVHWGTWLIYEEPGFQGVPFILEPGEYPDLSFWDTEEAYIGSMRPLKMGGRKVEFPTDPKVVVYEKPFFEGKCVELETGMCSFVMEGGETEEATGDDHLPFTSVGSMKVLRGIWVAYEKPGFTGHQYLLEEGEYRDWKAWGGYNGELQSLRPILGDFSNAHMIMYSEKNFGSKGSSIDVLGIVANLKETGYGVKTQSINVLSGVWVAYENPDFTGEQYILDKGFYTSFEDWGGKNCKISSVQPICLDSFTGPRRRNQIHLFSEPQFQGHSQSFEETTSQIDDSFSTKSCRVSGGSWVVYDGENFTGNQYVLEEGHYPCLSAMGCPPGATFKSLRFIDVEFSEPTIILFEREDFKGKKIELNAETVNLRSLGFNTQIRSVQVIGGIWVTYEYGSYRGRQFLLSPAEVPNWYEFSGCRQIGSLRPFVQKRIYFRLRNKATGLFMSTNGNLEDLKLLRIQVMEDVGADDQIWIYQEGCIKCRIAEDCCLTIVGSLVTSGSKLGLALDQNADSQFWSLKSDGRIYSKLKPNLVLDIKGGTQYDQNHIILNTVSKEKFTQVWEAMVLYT

Row | Compound | % engagement YES1_287 (YES1_C287) [%] | % engagement CHUK_C406 (CHUK_C406) [%] | % engagement CRYBG1_C1574 (CRYBG1_C1574) [%] | % engagement YES1_C287 (YES1_C287) [%] | % engagement GRIN2C_C1105 (GRIN2C_C1105) [%] | % engagement SCAMP4_C20 (SCAMP4_C20) [%] | % engagement KRTCAP3_C197 (KRTCAP3_C197) [%]
1 | CC#CC(=O)N1C[C@H](c2ccc(Br)cc2)[C@@H]1C(=O)Nc1cccc2cccnc12 [MY-45B, (2R,3S)-3-(4-bromophenyl)-1-(but-2-ynoyl)-N-(quinolin-8-yl)azetidine-2-carboxamide] | 5.50 | – | – | – | – | – | –
2 | C=CC(=O)N1C[C@H](c2ccc(Br)cc2)[C@H]1C(=O)Nc1cccc2cccnc12 [MY-3A, (2S,3S)-1-acryloyl-3-(4-bromophenyl)-N-(quinolin-8-yl)azetidine-2-carboxamide] | – | 0 | 28.5 | 0.5 | 85 | 72.5 | 31
3 | C=CC(=O)N1C[C@H](c2ccc(Br)cc2)[C@@H]1C(=O)Nc1cccc2cccnc12 [MY-1B, (2R,3S)-1-acryloyl-3-(4-bromophenyl)-N-(quinolin-8-yl)azetidine-2-carboxamide] | 67.13 | 28.5 | 72 | 94.5 | 40.5 | 85.5 | 69.5
4 | C=CC(=O)N1C[C@H](c2ccc(Br)cc2)[C@H]1C(=O)Nc1cccc2cccnc12 [MY-3B, (2S,3S)-1-acryloyl-3-(4-bromophenyl)-N-(quinolin-8-yl)azetidine-2-carboxamide] | – | 97 | 13.5 | 42.25 | 64.5 | 100 | 54
5 | C=CC(=O)N1C[C@@H](c2ccc(Br)cc2)[C@H]1C(=O)Nc1cccc2cccnc12 [MY-1A, (2S,3R)-1-acryloyl-3-(4-bromophenyl)-N-(quinolin-8-yl)azetidine-2-carboxamide] | – | 51.5 | 23 | 5.75 | 78.5 | 80 | 61

— patent publication US20250034216A1, “STEREOSELECTIVE COVALENT LIGANDS FOR ONCOGENIC AND IMMUNOLOGICAL PROTEINS” (The Scripps Research Institute, priority 2021, published 2025)
